Calls of active or inactive are those of the source. The rule behind the calls is not given here.
Legend:
[1] = Intrinsic clearance in human liver microsomes at 1 uM; format: ADME, Microsome
[2] = molecular target: T1, Corticotropin-releasing factor receptor 1 (Rattus norvegicus, UniProt P35353); test: Displacement of [125I]ovine-CRF from CRF1 receptor in rat frontal cortex by rapid filtration technique; format: tissue-based
T1 sequence (P35353 whole entry): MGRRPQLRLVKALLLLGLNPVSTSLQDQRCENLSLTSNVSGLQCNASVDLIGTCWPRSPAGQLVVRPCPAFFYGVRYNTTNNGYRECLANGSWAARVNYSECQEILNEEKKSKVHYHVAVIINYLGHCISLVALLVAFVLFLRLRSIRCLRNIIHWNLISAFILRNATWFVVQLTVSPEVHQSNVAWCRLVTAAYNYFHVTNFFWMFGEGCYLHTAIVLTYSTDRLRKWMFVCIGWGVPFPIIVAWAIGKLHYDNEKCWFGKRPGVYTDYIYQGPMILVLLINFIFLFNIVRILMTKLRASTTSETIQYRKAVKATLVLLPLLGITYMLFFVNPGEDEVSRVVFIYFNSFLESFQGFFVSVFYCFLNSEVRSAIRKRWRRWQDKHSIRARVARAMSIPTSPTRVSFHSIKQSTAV

[3] = Half life in Sprague-Dawley rat 2 mg/kg, iv within 0.17 to 24 hrs; format: ADME, organism-based; set-up: dose 2 mg/kg, route intravenous; settings: in vivo
[4] = Volume of distribution at steady state in Sprague-Dawley rat 2 mg/kg, iv within 0.17 to 24 hrs; format: ADME, organism-based; set-up: dose 2 mg/kg, route intravenous; settings: in vivo, read-out: Vdss
[5] = Clearance in Sprague-Dawley rat 2 mg/kg, iv within 0.17 to 24 hrs; format: ADME, organism-based; set-up: dose 2 mg/kg, route intravenous; settings: in vivo
[6] = AUC in Sprague-Dawley rat at 10 mg/kg, po dosed as aqueous suspension of 1% polysorbate 80 in 0.5% methylcellulose within 0.25 to 24 hrs; format: ADME, organism-based; set-up: time 0.25-24 hr, dose 10 mg/kg, route oral; settings: in vivo
[7] = Cmax in Sprague-Dawley rat at 10 mg/kg, po dosed as aqueous suspension of 1% polysorbate 80 in 0.5% methylcellulose within 0.25 to 24 hrs; format: ADME, organism-based; set-up: dose 10 mg/kg, route oral; settings: in vivo
[8] = Oral bioavailability in Sprague-Dawley rat at 10 mg/kg dosed as aqueous suspension of 1% polysorbate 80 in 0.5% methylcellulose within 0.25 to 24 hrs; format: ADME, organism-based; settings: in vivo
[9] = Fraction unbound in Sprague-Dawley rat plasma at 10 mg/kg, po after 3 hrs by equilibrium dialysis; format: ADME, organism-based; set-up: dose 10 mg/kg, route oral
[10] = system: Rattus norvegicus; test: Total plasma concentration in Sprague-Dawley rat at 10 mg/kg, po; format: ADME, organism-based; set-up: dose 10 mg/kg, route oral; settings: in vivo
[11] = system: Rattus norvegicus; test: Plasma free concentration in Sprague-Dawley rat at 10 mg/kg, po; format: ADME, organism-based; set-up: dose 10 mg/kg, route oral; settings: in vivo
[12] = system: Rattus norvegicus; test: Ex vivo receptor occupancy of CRF1 receptor in Sprague-Dawley rat brain at 10 mg/kg, po after 20 mins by autoradiography relative to [125I-tyrosine]sauvagine; format: functional
[13] = system: Rattus norvegicus; test: Ex vivo receptor occupancy of CRF1 receptor in Sprague-Dawley rat brain at 3 mg/kg, po after 20 mins by autoradiography relative to [125I-tyrosine]sauvagine; format: functional
[14] = system: Rattus norvegicus; test: Ex vivo receptor occupancy of CRF1 receptor in Sprague-Dawley rat brain at 1 mg/kg, po after 20 mins by autoradiography relative to [125I-tyrosine]sauvagine; format: functional
[15] = system: Rattus norvegicus; test: Anxiolytic activity in Sprague-Dawley rat at 10 mg/kg, po assessed as decrease in exit latency after 60 mins by defensive withdrawal test relative to control; format: functional; set-up: scale not given: the % may be the effect or the level left
[16] = system: Rattus norvegicus; test: Anxiolytic activity in Sprague-Dawley rat at 3 mg/kg, po assessed as decrease in exit latency after 60 mins by defensive withdrawal test relative to control; format: functional
[17] = system: Rattus norvegicus; test: Anxiolytic activity in Sprague-Dawley rat at 1 mg/kg, po assessed as decrease in exit latency after 60 mins by defensive withdrawal test relative to control; format: functional
[18] = molecular target: Corticotropin releasing hormone receptor 2 (Sus scrofa, UniProt B8Q4Z9); test: Displacement of [125I]sauvagine from CRF2 receptor in pig choroid plexus by rapid filtration technique; format: tissue-based
Corticotropin releasing hormone receptor 2, sequence (B8Q4Z9 whole entry): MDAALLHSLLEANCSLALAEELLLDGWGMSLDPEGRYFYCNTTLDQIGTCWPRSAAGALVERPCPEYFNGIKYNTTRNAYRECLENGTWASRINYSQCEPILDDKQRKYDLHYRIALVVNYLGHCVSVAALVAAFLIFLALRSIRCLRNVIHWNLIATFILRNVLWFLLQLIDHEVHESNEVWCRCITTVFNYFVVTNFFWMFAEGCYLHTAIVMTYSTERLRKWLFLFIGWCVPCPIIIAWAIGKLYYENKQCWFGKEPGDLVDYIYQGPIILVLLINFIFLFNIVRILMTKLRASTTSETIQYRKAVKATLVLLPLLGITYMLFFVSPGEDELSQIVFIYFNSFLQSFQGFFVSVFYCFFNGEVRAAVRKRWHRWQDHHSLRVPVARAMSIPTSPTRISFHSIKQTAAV

Compound | CLint scaled at 1 µM [1] [mL/min/kg] | IC50 [2] [nM] | other results
COc1cc(Cl)c(C)cc1Nc1nc(Cl)cn([C@H](C)C2CC2)c1=O | – | 36 | –
Cc1cc(C)c(Nc2nc(Cl)cn([C@H](C)C3CC3)c2=O)c(C)c1 | 180 | – | –
Cc1cc(Cl)c(Nc2nc(Cl)cn([C@H](C)C3CC3)c2=O)cc1C#N | 160 | 19 | –
COCC(COC)n1cc(Cl)nc(Nc2c(Cl)cc(C(F)(F)F)cc2Cl)c1=O | 53 | 8.5 | –
C[C@H](C1CC1)n1cc(C#N)nc(Nc2c(Cl)cc(C(F)(F)F)cc2Cl)c1=O | 13 | 7.5 | fraction unbound at 3 h [9]: 0.011; concentration [10]: 1400 nM; Cp(f) [11]: 16 nM; Activity [12]: 68%
C[C@H](C1CC1)n1cc(Cl)nc(Nc2cc3c(cc2Cl)OCC3)c1=O | – | 120 | –
COc1cc(C)c(Nc2nc(Cl)cn([C@H](C)C3CC3)c2=O)cc1OC | 100 | 15 | –
CC[C@H](C)[C@H](NC(=O)[C@@H](NC(=O)[C@H](CC(=O)O)NC(=O)[C@H](CC(C)C)NC(=O)[C@H](CC(C)C)NC(=O)[C@H](CC(C)C)NC(=O)[C@H](CCCNC(=N)N)NC(=O)[C@H](CC(N)=O)NC(=O)[C@H](CC(N)=O)NC(=O)[C@H](C)NC(=O)[C@H](C)NC(=O)[C@H](CCC(N)=O)NC(=O)[C@H](CCC(N)=O)NC(=O)[C@H](CCCCN)NC(=O)[C@H](CCC(=O)O)NC(=O)[C@H](CCCCN)NC(=O)[C@H](CCC(=O)O)NC(=O)[C@H](CCC(N)=O)NC(=O)[C@H](CCCCN)NC(=O)[C@H](CCC(=O)O)NC(=O)[C@@H](NC(=O)[C@H](CCC(=O)O)NC(=O)[C@@H](NC(=O)[C@H](CCSC)NC(=O)[C@H](CCCCN)NC(=O)[C@H](CCCNC(=N)N)NC(=O)[C@H](CC(C)C)NC(=O)[C@H](CC(C)C)NC(=O)[C@H](CCC(=O)O)NC(=O)[C@H](CC(C)C)NC(=O)[C@H](CO)NC(=O)[C@H](CC(C)C)NC(=O)[C@H](CC(=O)O)NC(=O)[C@@H](NC(=O)[C@H](CO)NC(=O)[C@@H](NC(=O)[C@@H]1CCCN1C(=O)[C@@H]1CCCN1C(=O)CNC(=O)[C@@H]1CCC(=O)N1)[C@@H](C)CC)[C@@H](C)CC)[C@@H](C)CC)[C@@H](C)CC)[C@@H](C)O)C(N)=O [SAUVAGINE] | – | – | IC50 [18]: 0.58 nM

More lines, main results first:

CLint scaled at 1 µM [1] [mL/min/kg] | IC50 [2] [nM] | Compound | other results
89 | 1.3 | CC[C@H](C1CC1)n1cc(Cl)nc(Nc2c(Cl)cc(C(F)(F)F)cc2Cl)c1=O | –
– | 4.8 | Cc1cc(C)c(Nc2nc(Cl)cn([C@H](C)C3CC3)c2=O)cc1C | –
10 | 4.1 | C[C@H](C1CC1)n1cc(Cl)nc(Nc2c(Cl)cc(C(F)(F)F)cc2Cl)c1=O | half-life [3]: 17 h; Vd [4]: 24 L/kg; clearance [5]: 21 mL/min/kg; AUC [6]: 7.35 µM·h; Cmax [7]: 490 nM; bioavailability [8]: 37%; fraction unbound at 3 h [9]: 0.0033; concentration [10]: 2000 nM; Cp(f) [11]: 6.7 nM; Activity [12]: 81%; Activity [13]: inactive; Activity [14]: inactive; Activity [15]: 68%; Activity [16]: inactive; Activity [17]: inactive
38 | 2.9 | Cc1cc(C#N)cc(Cl)c1Nc1nc(Cl)cn([C@H](C)C2CC2)c1=O | fraction unbound at 3 h [9]: 0.044; concentration [10]: 250 nM; Cp(f) [11]: 11 nM; Activity [12]: 34%
64 | 1.6 | COC[C@@H](C1CC1)n1cc(Cl)nc(Nc2c(Cl)cc(C(F)(F)F)cc2Cl)c1=O | –
30 | 6.5 | C[C@H](C1CC1)n1cc(Cl)nc(Nc2c(Cl)cc(OC(F)(F)F)cc2Cl)c1=O | –
400 | 0.44 | CC[C@H](C1CC1)n1cc(Cl)nc(Nc2c(Cl)cc(OC)cc2Cl)c1=O | –
– | 1.2 | COCC(COC)Nc1nc(C)nc2c(-c3ccc(Cl)cc3Cl)c(C)nn12 | Activity [15]: 61%
32 | 1.2 | CCOc1cc(C)c(Nc2nc(Cl)cn([C@H](C)C3CC3)c2=O)cc1C | –
– | 0.91 | C[C@H](C1CC1)n1cc(Cl)nc(Nc2c(Cl)cc(Cl)cc2Cl)c1=O | –
44 | 1.2 | Cc1cc(Cl)cc(Cl)c1Nc1nc(Cl)cn([C@H](C)C2CC2)c1=O | –
